Experimental data: paper PMC12731536, “Sc(III) Complexes of Pyclen Derivative Ligands as Probes for Hypoxia: Synthesis, Chemical Characterization, ^44Sc‐Radiolabeling, and Preclinical Assessment” (Chemistry (Weinheim an Der Bergstrasse, Germany), 2025)

Legend:
[1] = Acid‐assisted dissociation (decomplexation) of Sc(III) complexes, UV spectroscopy; assay type: physicochemical
Description: The inertness of metal complexes is a basic requirement in all relevant modalities of medical imaging. Complexes of macrocyclic ligands are often more inert compared to open‐chain analogs. In order to assess the behavior of our complexes, the decomplexation of [Sc(PC2AM^nBu)]^+ and [Sc(PCTA)] was studied in a strongly acidic medium (cH + = 1.6 ‐ 2.6 M HClO4) by using UV spectroscopy. […] The primary Abs. versus time curves have been fitted by monoexponential function returning kobs (s^−1) values (Figures S22 and S23).
The plots of the rate constants as a function of acid concentration yielded linear relationships for both complexes (k obs = k 0 + k 1[H^+]). The slopes of these lines correspond to the rate coefficients characteristic for acid‐assisted dissociation (k 1), whereas the intercepts characterize the acid‐independent part, often referred to as a rate of spontaneous dissociation. […] The rate coefficients obtained during the fitting are summarized in Table 3, along with the half‐lives calculated from the rate coefficients by using 1 M acid concentration (t ½ = ln 2 / k obs).
Kinetic studies of the dissociation of the [Sc(PC2AMnBu)]^+ and [Sc(PCTA)] complexes were carried out by examining the dependence of the dissociation rates on acid concentration. Spectrophotometric measurements were conducted on a JASCO V‐760 spectrophotometer at λ = 280 nm. The concentration of the complex in the sample was 0.30 mM, and HClO4 was applied in concentrations ranging from 1.6 to 2.6 M. The evaluation of the measured data was performed with Scientist software ^[ [62] ^] to determine the k 0 (spontaneous) and k 1 (acid‐assisted) reaction rates.

[2] = Stability constants of Sc(III) complexes, out‐of‐cell (batch) samples, 45Sc NMR; assay type: physicochemical; conditions: I = 1.00 M NaCl; for pSc: pSc = ‐log[Sc(III)]free, cSc(III) = 1x10^−8 M, clig = 1x10^−7 M; for log K ScL: stability constant of the Sc(III) complex, T = 25 °C
Description: The stability constant of the complex of PC2AM^nBu ligand formed with Sc(III) ion was studied using “out‐of‐cell” (batch) samples using ^45Sc NMR spectroscopy in strongly acidic media. Typical ^45Sc NMR spectra are shown in Figure 5 along with the corresponding ^1H NMR spectra of the aromatic region of the ligand.
Using the ^45Sc NMR signal intensities of free Sc^3+ measured in the equilibrated samples, the stability constant, K ScL, was calculated by fitting the areas with the PSEQUAD program ^[ [47] ^] (Figure 6). The best fitting was observed by considering the simplest model including only [Sc(PC2AM^nBu)]^+ species; that is, the formation of protonated [Sc(HPC2AM^nBu)]^2+ cannot be confirmed.
The stability constant of the [Sc(PCTA)] complex was determined in a similar way (Figure S13). The results were summarized in Table 2, including the data of [Sc(DO3AM‐NI)], determined in our previous study.^[ [33] ^]
Among the complexes shown in Table 2, the [Sc(DO3AM‐NI)] complex has the highest stability, but its stability constant is lower than the corresponding values of [Sc(DOTA)]^− (log K ScL = 30.79) and [Sc(DTPA)]^2− (log K ScL = 27.43). ^[ [49] ^] As evidenced for DO3AM‐mono(amide) the replacement of acetate side chains with amide groups results in a decrease in stability constant (and conditional stability); therefore, we can see an order of magnitude difference between the stabilities of [Sc(PCTA)] and [Sc(PC2AM^nBu)]^+. Although these K ScL constants and pSc values are somewhat lower than those of the complexes formed with traditional DOTA and DTPA ligands, these chelators remain remarkably good Sc(III)‐binding chelators. […] Therefore, following the proposal of M. Meyer and colleagues,^[ [48] ^] […] For the AL/M values, 1 corresponds to 90%, 2 corresponds to 99%, 3 corresponds to 99.9% etc. for complex formation. […] The AL/M data of the [Sc(PC2AM^nBu)]^+ complex only exceeds that of the [Sc(DO3AM‐NI)] complex in the pH < 3.0 range, which can be advantageous for labeling at low pH. Furthermore, based on the data in Table 2, it can be concluded that for these systems there is no discrepancy between the trends observed in the pSc and AL/M values.
The stability constant of [Sc(PC2AM^nBu)]^+ and [Sc(PCTA)] complexes was studied using “out‐of‐cell” (batch) samples using ^45Sc and ^1H NMR spectroscopy. The NMR spectra were obtained using a Bruker Avance II DRX spectrometer (9.4 T), equipped with Bruker Variable Temperature Unit, Bruker Cooling Unit, and a 5 mm BB inverse z gradient probe. For the investigation of [Sc(PC2AMnBu)]⁺, twelve samples (cSc(III) = 3.00 mM, cligand = 3.06 mM, in the pH range of –log[H^+] = 0.1–1.3; I = 1.0 M NaCl/HCl) were prepared in NMR tubes and kept at 25 °C for one week to reach equilibrium. During this period, ^1H and ^45Sc NMR measurements were performed daily to monitor changes in signal intensities. No significant changes were detected after one week, even in the most acidic sample. The intensities of the free Sc(III) signals were normalized using a standard 50 mM ScCl3 solution containing 1 M HCl (20% D2O). For the determination of the stability of the [Sc(PCTA)] complex, eleven “batch” samples (cSc(III) = 4.00 mM, cligand = 4.08 mM), in the pH range of –log[H^+] = 0.1–1.25, were prepared. The evaluation of the measured data was performed using the PSEQUAD program.^[ [47] ^] Samples were prepared in H2O, with 10% D2O added for deuterium lock. The actual resonance frequencies for ^1H, ^13C, ^19F, and ^45Sc are indicated in the text and figure captions. The chemical shifts of ^1H and ^13C were calibrated using an external TMS standard, while ^19F was referenced to CCl3F. The ^45Sc NMR shift was calibrated to 0 ppm using a 5 mM solution of ScCl3 in 0.1 M HCl.

[3] = I = 0.15 M NaCl, T = 25 °C; cited from earlier work
[4] = dissociation of the Sc(III) complex, 1.6‐2.6 M HClO4, 25 °C, I = 2.6 M

Row | AL/M (relative affinity) ([2]; [Sc(III)]total = 10 nM, [L]tot = 100 nM, pH = 7.4) | pSc ([2]; pH = 7.4) | log K ScL [2] | t 1/2 of dissociation (1 M H^+) ([1]; calculated from rate coefficients at 1 M acid concentration, 25 °C) [days] | Compound | k 0 (spontaneous dissociation) [1, 4] | k 1 (acid‐assisted dissociation) [1, 4] | log K 1 ^H [3] | log K 2 ^H [3] | log K 3 ^H [3] | log K 4 ^H [3] | log β 2 ^H [3]
1 | 7.14 | 21.28 | 22.41(9) | – | O=C(O)CN1CCN(CC(=O)O)Cc2cccc(n2)CN(CC(=O)O)CC1 [PCTA, reference compound] | (4.21 ± 0.81) x 10^−6 s^−1 | (2.11 ± 0.38) x 10^−6 M^−1s^−1 | 9.97 | 6.73 | 3.22 | 1.40 | 16.70
2 | – | 19.32 | 19.53(4) | 22 | CCCCNC(=O)CN1CCN(CC(=O)[O-])Cc2cccc(n2)CN(CC(=O)[O-])CC1.[Sc+3] [[Sc(PC2AM^nBu)]^+] | – | – | – | – | – | – | –
